Results published in BigSolDB 2.1.

OC[C@H]1O[C@H](O[C@]2(CCl)O[C@H](CCl)[C@@H](O)[C@@H]2O)[C@H](O)[C@@H](O)[C@H]1Cl
solubility (mole fraction)
Settings | in ethanol | in isopropanol | in methanol | in water
283.15 K | 0.00843 | – | 0.0307 | 0.0107
288.15 K | 0.00976 | 0.00389 | 0.0315 | 0.0115
293.15 K | 0.012 | 0.0044 | 0.0328 | 0.0123
298.15 K | 0.0143 | 0.00533 | 0.0343 | 0.0146
303.15 K | 0.0158 | 0.00624 | 0.0362 | 0.0164
308.15 K | 0.0184 | 0.00789 | 0.0383 | 0.0182
313.15 K | 0.0202 | 0.00854 | 0.0415 | 0.0195
318.15 K | 0.0228 | 0.011 | 0.0449 | 0.0223
323.15 K | 0.0248 | 0.0128 | 0.0485 | 0.0259
328.15 K | 0.0281 | 0.015 | 0.0524 | 0.0285
333.15 K | 0.0322 | 0.0171 | 0.0596 | 0.0314
